Reference: patent publication US20170227553A1, “COMPOSITIONS AND METHODS FOR IDENTIFYING AND TREATING CONDITIONS INVOLVING HSF1 ACTIVITY” (Duke University, priority 2014, published 2017)

Legend:
HD cell models = assay: HSF1 levels revived with CK2 inhibitors in HD cell models; type: cell-based
[1] = test system: Htt-Q74 expressing PC12 cells; assay: Hsp70 immunoblot after CK2 inhibitor pre-treatment, Htt-Q74 induction and heat shock; type: cell-based, rat; settings: 0.5, 1 and 5 μM for 15 h prior to doxycycline induction; heat shock 42° C. 1 h, 7 h recovery
Description: Then cells were either not treated (−Dox) or treated with doxycycline at 1 microgram/mL during 3 days (+Dox) at 37° C. Cells were then heat shocked at 42° C. (1 h) followed by 7 h recovery (HS) at 37° C. Total protein was analyzed by SDS-PAGE and immunoblotting for Hsp70 and GAPDH. (D) Cells from CK2 kinase inhibitor treatment were analyzed by fluorescence microscopy using GFP as a marker for Htt-Q74 aggregation and the number of cells with inclusions bodies was quantified and normalized with total cell number from DIC images, as a measure of Htt-Q74 protein aggregation. Data are presented as mean±SE from three separate experiments (* P<0.05, ** P<0.01). (E) Htt-Q74 PC12 cells were incubated at 37° C. in a 96-well plate in the presence of either DMSO or the kinase inhibitor TID43 at 5 microMolar final concentration during 15 h prior to Htt-Q74 induction by doxycycline. Cells were then either not treated or treated with doxycycline at 1 microgram/mL for 3 days (+Dox) at 37° C. and then heat shocked at 42° C. (1 h) followed by 7 h recovery (HS) at 37° C. Cell viability was analyzed using the Cell Titer Glo assay (Promega) and values were expressed as percentage of viable cells compared with untreated cells at 37° C. Data are presented as means±SE from three separate experiments (* P<0.05). […]

Structure (SMILES)	HSF1 levels (HD cell models)	HSF1 activation, Hsp70 expression levels (immunoblot) [1]
O=C(O)c1c[nH]c2c(Cl)c(Cl)ccc2c1=O [Cay10577, 7,8-dichloro-1,4-dihydro-4-oxo-3-quinolinecarboxylic acid]	revived	–
Cc1cc(O)c2c(c1)C(=O)c1cc(O)cc(O)c1C2=O [Emodin]	–	rescue HSF1 activation, Hsp70 expression levels
Cn1cc(C2=C(c3ccc(Cl)cc3Cl)C(=O)NC2=O)c2ccccc21 [SB216763]	revived	rescue HSF1 activation, Hsp70 expression levels
Brc1c(Br)c(Br)c2[nH]cnc2c1Br [TBBz]	revived	–
